Consider 8 compounds from US8304557B2, “Fused heterocycle derivatives and use thereof” (Takeda Pharmaceutical Company Limited, priority 2007, dated 2012).

Experiment [1] has as its system Human umbilical vein vascular endothelial cells (HUVEC). Put plainly: Vascular endothelial cell growth inhibitory test (VEGF-stimulated HUVEC, WST-8). The format is cell-based. As to conditions: 120 h, VEGF 120 ng/mL solution added, 5 days of culture, read-out: IC50 value, vascular endothelial cell growth inhibition. The procedure:
To be specific, HUVEC was suspended in a vascular endothelial cell medium containing the aforementioned 3% bovine fetal serum and plated in a 96 well flat bottom plate by 50 μL (3000 cells) each well. After culture overnight, various concentrations of the test substance and 120 ng/mL of vascular endothelial growth factor (VEGF) were dissolved in a vascular endothelial cell medium containing 3% bovine fetal serum and added to each well by 50 μL. […] The absorbance at 450 nm was measured by a microtiter plate reader and the cell growth inhibitory activity was determined.
On the technique in general: Formazan colour is commonly taken as a measure of viable cells.

Experiment [2] concerns the target T1, Platelet-derived growth factor receptor α (PDGFRα) intracellular domain protein (Homo sapiens, UniProt P16234).
T1 construct: 125 ng/ml of PDGFα intracellular domain protein (UPSTATE); purchased UPSTATE
Put plainly: PDGFRα kinase inhibitory activity (AlphaScreen). The format is biochemical. As to conditions: ATP 25 μM solution; 25° C., 30 min; read-out: IC50 value, PDGFRα kinase inhibition. On the procedure:
A test compound dissolved in dimethyl sulfoxide (DMSO) was diluted with a buffer (50 mM Tris-HCl (pH 7.5), 5 mM MgCl2, 5 mM MnCl2, 2 mM dithiothreitol, 0.01% Tween-20). […] The reaction solution was allowed to stand at 25° C. for 16 hrs, and the wells were counted using a plate reader Fusion™ (PerkinElmer). The kinase inhibitory rate (%) of the test compound was calculated by the following formula: Inhibitory rate(%)=(1−(count of test compound−blank)÷(control−blank))×100
(§1) The count of the solution reacted without addition of the compound was used as a “control”, and the count of the solution without the compound and ATP was used as a “blank”.
Background: Bead proximity is the source of the signal in Alpha formats.

Experiment [3] addresses T2, PDGFRβ intracellular domain protein (Homo sapiens, UniProt P09619).
T2 construct: 125 ng/ml of PDGFRβ intracellular domain protein (UPSTATE); purchased UPSTATE
Put plainly: PDGFRβ kinase inhibitory activity (AlphaScreen). The format is biochemical. As to conditions: ATP 50 μM solution; 25° C., 60 min; read-out: IC50 value, PDGFRβ kinase inhibition. The procedure: A test compound dissolved in dimethyl sulfoxide (DMSO) was diluted with a buffer (50 mM Tris-HCl (pH 7.5), 5 mM MgCl2, 5 mM MnCl2, 2 mM dithiothreitol, 0.01% Tween-20). […] The reaction solution was allowed to stand at 25° C. for 16 hr, and the wells were counted using a plate reader Fusion™ (PerkinElmer). The kinase inhibitory rate (%) of the test compound was calculated by the following formula: Inhibitory rate(%)=(1−(count of test compound−blank)÷(control−blank))×100
as §1

The target in experiment [4] is VEGFR2 intracellular domain protein (Homo sapiens, UniProt P35968). Put plainly: VEGF receptor 2 kinase inhibitory activity (AlphaScreen). The conditions noted are these: read-out: The inhibitory rate of the compounds at 1 μM (VEGF receptor 2 kinase).
Description: Human vascular endothelial growth factor receptor 2 (hereinafter to be referred to as VEGFR2) gene was cloned by PCR using cDNA Libraries Human Placenta (Clontech) as a template.
The PCR reaction was conducted using a KOD-plus kit (TOYOBO). […] Furthermore, using BAC-TO-BAC Baculovirus Expression System (Invitrogen), virus stock BAC-VEGFR2 of recombinant baculovirus was prepared.
SF-21 cells were sown at 1×10^6 cells/mL to Sf-900II SEM medium (1 L, Invitrogen) containing 10% fetal bovine serum (trace), 50 mg/L Gentamicin (Invitrogen) and 0.1% Pluronic F-68 (Invitrogen), and shaking culture was performed using a 2 L volume Erlenmeyer flask at 27° C., 100 rpm. After culturing for 24 hrs, recombinant baculovirus BAC-VEGFR2 (13.4 mL) was added to the mixture, and the mixture was further cultured for 3 days. The culture medium was centrifuged at 2,000 rpm for 5 min to give virus-infected cells. The infected cells were washed with a phosphate buffered saline (Invitrogen), centrifuged under the same conditions, and the cells were preserved at −80° C. The cryopreserved cells were thawed in ice, suspended in buffer A (50 mM Tris buffer (30 mL, pH 7.4) containing 20% glycerol, 0.15 M NaCl) supplemented with Complete Protease Inhibitor (Boehringer), and ruptured 3 times with a Polytron homogenizer (Kinematica) at 20,000 rpm for 30 sec. The ruptured medium was clarified by centrifugation at 40,000 rpm for 30 min and filtered with a 0.45 μm filter. The filtrate was passed through a column packed with Anti-FLAG M2 Affinity Gel (4 mL, Sigma) at a flow rate of about 0.5 mL/min. The column was washed with buffer A, and eluted with buffer A containing 100 μg/mL of FLAG peptide. The eluate was concentrated with Vivaspin 20 (Vivascience) having a molecular weight cut off of 30K. The buffer of this concentrate was exchanged using NAP™ 25 column (Amersham Bioscience) equilibrated with buffer A. The fractions containing intracellular domain protein of VEGFR2 were collected, glycerol was added to the final concentration of 50% and cryopreserved at −80° C.
A test compound dissolved in DMSO was diluted with a buffer (50 mM Tris-HCl (pH 7.5), 5 mM MgCl2, 5 mM MnCl2, 2 mM dithiothreitol, 0.01% Tween-20). To this compound solution (5 μL) was added a buffer (10 μL) containing 50 ng/mL of VEGFR2 intracellular domain protein and 250 ng/mL of biotin labeled polypeptide biotinyl-poly-Glu:Tyr (4:1, CIS bio International). […] The reaction solution was allowed to stand at 25° C. for 16 hrs, and the wells were counted using a plate reader Fusion™ (PerkinElmer). The kinase inhibitory rate (%) of the test compound was calculated by the following formula: Inhibitory rate(%)=(1−(count of test compound−blank)÷(control−blank))×100
The target of experiment [5] is T3, BRAF (V600E) kinase (Homo sapiens, UniProt P15056, V600E).
T3 construct: made in house; host or cells: SF-21 insect cells, recombinant baculovirus BAC-V600E
Put plainly: BRAF (V600E) kinase inhibitory activity ([γ-32P]ATP, GST-MEK1 (K96R) substrate). The experiment is classed as biochemical. The conditions noted are these: 1 μM compound; BRAF (V600E) 30 ng, GST-MEK1 (K96R) 250 ng; room temperature, 20 min; read-out: The inhibitory rate of the compounds at 1 μM (%). On the procedure:
Human BRAF gene was cloned by PCR using human Testis cDNA library (Clontech) as a template. The primer used for PCR was prepared from base sequence (Genbank Accession NM_004333) information of BRAF gene by adding a base sequence encoding flag peptide and a recognition sequence of the restriction enzyme to area encoding the BRAF kinase domain region, so that the protein contains an N-terminal Flag. The primer base sequence is shown below.
The PCR reaction was conducted using Pyrobest (Takara Shuzo Co., Ltd). The obtained PCR product was electrophoresed on agarose gel (1%), the DNA fragment amplified by PCR was recovered from the gel, and then digested with restriction enzymes EcoRI and SalI. The DNA treated with the restriction enzymes was electrophoresed on agarose gel (1%), and the obtained DNA fragment was recovered. The recovered DNA fragment was ligated to plasmid pFASTBAC1 (Invitrogen) digested with restriction enzymes EcoRI and SalI to give expression plasmid pFB-BRAF, and the base sequence of the insert fragment was confirmed. In addition, mutation was introduced into V600E using a Quick change Site Directed Mutagenesis kit (Stratagene). The nucleotide sequences of the primers used are shown in the following.
The obtained plasmid was sequenced to confirm the introduction of mutation into V600E. The plasmid DNA was digested with restriction enzymes EcoRI and SalI, DNA treated with the restriction enzymes was electrophoresed on agarose gel (1%), and the obtained DNA fragment was recovered. The recovered DNA fragment was ligated to plasmid pFASTBAC1 (Invitrogen) digested with restriction enzymes EcoRI and SalI to give expression plasmid pFB-V600E.
SF-21 cells were sown at 1×10^6 cells/mL to Sf-900II SFM medium (1 L, Invitrogen) containing 10% fetal bovine serum (Trace), 50 mg/L Gentamicin (Invitrogen) and 0.1% Pluronic F-68 (Invitrogen), and shaking culture was performed using a 2 L volume Erlenmeyer flask at 27° C., 100 rpm. After culturing for 24 hr, recombinant baculovirus BAC-V600E (13.4 mL) was added to the mixture, and the mixture was further cultured for 3 days. […]

For experiment [6], the system named is phosphorylated MEK1/2 in human colon cancer cell HT-29. Put plainly: Colon cancer cell HT-29 intracellular MEK phosphorylation inhibitory action in vitro (Western blot). The conditions noted are these: HT-29 cells, 2 hr treatment, anti-phosphorylated MEK1/2 (Ser217/221), read-out: IC50 (nM), MEK phosphorylation inhibition. The format is cell-based. The procedure:
A cell suspension (500 μL) of human colon cancer cell HT-29 was plated in a 48-well plate (100,000 cells/well), and the cells were cultured overnight at 37° C. in the presence of 5% CO2, treated with a test compound (250 μL/well) diluted in 3-fold dilution series and cultured for two more hours. After 2 hr, the culture medium containing the test compound was removed, and the cells were lysed with SDS sample buffer (100 μL/well) and heated at 95° C. for 5 min. Thereafter, the cells were applied to SDS-PAGE, and the protein was transferred onto Sequi-Blot™ PVDF Membrane (Bio-Rad, Richmond, Calif.) by the Western blot method. The cells were blocked with a block-Ace solution (Snow Brand Milk Products Co., Ltd) dissolved in phosphate buffer to 5% W/V, and reacted overnight with anti-phosphorylated MEK1/2 (Ser217/221) (Cell signaling #9121) diluted 1000-fold with phosphate buffer containing 0.4% block-Ace. […] The membrane was washed in the same manner as above, chemical luminescence of a phosphorylated MEK1/2 protein labeled with the antibody, which was caused by ECL-plus Detection Reagent (Amersham bioscience), was detected by Luminescent Image Analyzer LAS-1000 (FUJIFILM Corporation).
On the technique in general: In western blotting, separated proteins are transferred to a membrane and probed.

Experiment [7] concerns human colon cancer cell HT-29. Put plainly: Colon cancer cell HT-29 growth suppressive action in vitro (SRB). The format is cell-based. As to conditions: 72 h, HT-29 cells, cultured for 3 days with compound, SRB staining, read-out: IC50 (nM), HT-29 growth suppression. On the procedure: A cell suspension (100 μL, 3,000 cells/well) of human colon cancer cell HT-29 (purchased from ATCC) was plated in a 96-well plate, and the cells were cultured at 37° C. in a 5% carbon dioxide gas incubator. The next day, 2-fold serial dilution of each test compound solution (diluted from maximum concentration 20 μM) (100 μL) was added, and the cells were cultured for 3 days. The culture medium containing the test compound was removed, and the cells were washed with phosphate buffer (PBS). A 50% trichloroacetic acid solution was added to the final concentration of 10% (v/v), and the mixture was stood overnight at 4° C., whereby the cells were fixed to the plate. Then, a dye SRB 0.4% (W/V) solution (dissolved in 1% acetic acid) was added at 50 μl/well, whereby the cell protein was fixed and stained (Skehan et al., Journal Of National Cancer Institute, vol. 82, pp. 1107-1112, 1990). The cells were washed 3 times with 1% acetic acid solution (200 μL/well), and 100 μL of an extract (10 mM Tris buffer) was added to extract the dye. The absorbance at an absorption wavelength […] was measured, and cell amount was measured as a protein amount.

T3 sequence (P15056 457-717 V600E limits assumed): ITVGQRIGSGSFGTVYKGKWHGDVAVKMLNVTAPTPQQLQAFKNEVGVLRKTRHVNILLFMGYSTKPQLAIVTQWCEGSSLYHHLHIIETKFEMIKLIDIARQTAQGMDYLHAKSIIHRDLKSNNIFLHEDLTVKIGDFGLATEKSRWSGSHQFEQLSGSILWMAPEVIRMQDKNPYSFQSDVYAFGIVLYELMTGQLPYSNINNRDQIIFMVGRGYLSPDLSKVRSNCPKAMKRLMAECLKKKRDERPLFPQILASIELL
T2 sequence (P09619 554-1106 limits assumed): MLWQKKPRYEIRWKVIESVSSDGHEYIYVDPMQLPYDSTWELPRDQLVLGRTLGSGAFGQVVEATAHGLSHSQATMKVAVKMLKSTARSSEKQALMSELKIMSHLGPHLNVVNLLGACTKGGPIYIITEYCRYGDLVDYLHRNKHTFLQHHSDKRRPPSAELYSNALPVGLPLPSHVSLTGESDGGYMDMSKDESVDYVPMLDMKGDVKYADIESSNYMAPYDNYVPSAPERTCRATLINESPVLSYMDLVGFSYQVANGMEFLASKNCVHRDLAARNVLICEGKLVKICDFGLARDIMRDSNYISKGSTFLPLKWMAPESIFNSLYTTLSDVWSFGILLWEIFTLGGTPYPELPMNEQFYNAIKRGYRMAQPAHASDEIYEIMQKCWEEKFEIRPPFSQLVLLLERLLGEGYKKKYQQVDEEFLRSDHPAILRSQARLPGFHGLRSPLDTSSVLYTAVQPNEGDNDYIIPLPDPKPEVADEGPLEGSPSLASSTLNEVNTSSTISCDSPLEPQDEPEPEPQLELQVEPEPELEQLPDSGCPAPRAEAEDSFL
VEGFR2 intracellular domain protein, sequence (P35968 786-1356 limits assumed): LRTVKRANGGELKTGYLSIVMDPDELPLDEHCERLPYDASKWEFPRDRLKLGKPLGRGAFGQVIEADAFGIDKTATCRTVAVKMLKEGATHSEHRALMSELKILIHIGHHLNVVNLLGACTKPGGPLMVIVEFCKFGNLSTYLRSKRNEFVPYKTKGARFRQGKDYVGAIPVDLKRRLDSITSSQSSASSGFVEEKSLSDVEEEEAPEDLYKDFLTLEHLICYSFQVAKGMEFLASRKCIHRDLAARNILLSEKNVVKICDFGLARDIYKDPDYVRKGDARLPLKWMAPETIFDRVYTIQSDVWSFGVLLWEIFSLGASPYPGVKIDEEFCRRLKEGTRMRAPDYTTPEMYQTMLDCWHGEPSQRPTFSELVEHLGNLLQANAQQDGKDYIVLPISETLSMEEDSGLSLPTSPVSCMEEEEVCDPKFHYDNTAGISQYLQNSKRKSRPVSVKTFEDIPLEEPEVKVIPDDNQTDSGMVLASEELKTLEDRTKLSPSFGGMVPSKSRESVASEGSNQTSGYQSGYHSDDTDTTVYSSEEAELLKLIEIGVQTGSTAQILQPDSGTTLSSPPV
T1 sequence (P16234 550-1089 limits assumed): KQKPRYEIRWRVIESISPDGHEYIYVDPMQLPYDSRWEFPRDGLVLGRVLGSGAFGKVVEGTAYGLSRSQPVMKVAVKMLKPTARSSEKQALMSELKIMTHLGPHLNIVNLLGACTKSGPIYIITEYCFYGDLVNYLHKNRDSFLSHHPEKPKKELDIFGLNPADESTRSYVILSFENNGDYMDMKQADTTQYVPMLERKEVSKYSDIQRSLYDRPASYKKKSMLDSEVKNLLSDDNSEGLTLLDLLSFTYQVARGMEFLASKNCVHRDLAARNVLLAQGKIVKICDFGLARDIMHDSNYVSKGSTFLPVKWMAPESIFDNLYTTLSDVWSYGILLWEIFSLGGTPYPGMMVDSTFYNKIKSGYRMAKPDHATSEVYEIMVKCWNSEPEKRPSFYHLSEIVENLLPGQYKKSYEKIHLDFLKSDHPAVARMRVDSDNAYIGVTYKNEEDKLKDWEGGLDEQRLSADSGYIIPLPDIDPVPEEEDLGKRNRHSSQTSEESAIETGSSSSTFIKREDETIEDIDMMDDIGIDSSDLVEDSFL

`Cc1cc(C(=O)Nc2cccc(Oc3ccn4nc(NC(=O)C5CC5)nc4c3)c2)n(C)n1` [Example 96-4, N-[3-({2-[(cyclopropylcarbonyl)amino][1,2,4]triazolo[1,5-a]pyridine-7-yl}oxy)phenyl]-1,3-dimethyl-1H-pyrazole-5-carboxamide]: the IC50 in experiment [1], in experiment [2] and in experiment [3] was not above 500 nM throughout. The inhibition at 1 µM in experiment [4] is not below 90%.

Regarding `Cc1cccc(C(=O)Nc2cccc(Oc3ccc4nc(NC(=O)C5CC5)cn4c3)c2)n1` [Example 127-2, N-[3-({2-[(cyclopropylcarbonyl)amino]imidazo[1,2-a]pyridin-6-yl}oxy)phenyl]-6-methylpyridine-2-carboxamide], the IC50 in experiment [1], in experiment [2] and in experiment [3] was not above 500 nM in each case. Further, the inhibition at 1 µM in experiment [4] is not below 90%.

In the case of `O=C(Nc1cccc(Oc2ccc3nc(NC(=O)C4CC4)cn3c2)c1)c1cccc(C(F)(F)F)c1` [Example 226, N-[3-({2-[(cyclopropylcarbonyl)amino]imidazo[1,2-a]pyridin-6-yl}oxy)phenyl]-3-(trifluoromethyl)benzamide], the inhibition at 1 µM in experiment [5] turned out to be 100%.

In the case of `CC(C)(C#N)c1cccc(C(=O)Nc2cccc(Oc3ccc4nc(NC(=O)C5CC5)cn4c3)c2)c1` [Example 228, 3-(1-cyano-1-methylethyl)-N-[3-({2-[(cyclopropylcarbonyl)amino]imidazo[1,2-a]pyridin-6-yl}oxy)phenyl]benzamide], the concentration for half-maximal inhibition (IC50) in experiment [6] and in experiment [7] was less than 500 nM each time.

`CC(C)(C#N)c1cccc(C(=O)Nc2cccc(Oc3ccc4nc(NC(=O)C5CC5)nn4c3)c2)c1` [Example 231, 3-(1-cyano-1-methylethyl)-N-[3-({2-[(cyclopropylcarbonyl)amino][1,2,4]triazolo[1,5-a]pyridin-6-yl}oxy)phenyl]benzamide]: the inhibition at 1 µM in experiment [5] was found to be 100%.

Regarding `N#CC1(c2cccc(C(=O)Nc3cccc(Oc4ccc5nc(NC(=O)C6CC6)nn5c4)c3)c2)CC1` [Example 232, 3-(1-cyanocyclopropyl)-N-[3-({2-[(cyclopropylcarbonyl)amino][1,2,4]triazolo[1,5-a]pyridin-6-yl}oxy)phenyl]benzamide], the 50% inhibitory concentration (IC50) (usually the point on the concentration scale where inhibition reaches its midpoint) in experiment [6] was less than 500 nM.

With `Cc1ccc(NC(=O)c2cccc(C(C)(C)C#N)c2)cc1Oc1ccc2nc(NC(=O)C3CC3)nn2c1` [Example 233, 3-(1-cyano-1-methylethyl)-N-[3-({2-[(cyclopropylcarbonyl)amino][1,2,4]triazolo[1,5-a]pyridin-6-yl}oxy)-4-methylphenyl]benzamide], in experiment [7], the IC50 is less than 500 nM.

Regarding `Cc1ccc(NC(=O)c2cccc(C(F)(F)F)c2)cc1Oc1ccc2nc(NC(=O)C3CC3)nn2c1` [Example 235, N-[3-({2-[(cyclopropylcarbonyl)amino][1,2,4]triazolo[1,5-a]pyridin-6-yl}oxy)-4-methylphenyl]-3-(trifluoromethyl)benzamide], the inhibition at 1 µM in experiment [5] was determined as 100%.
